Our source for the target mRNA inhibition values is the OligoGym collection.

Values joined by “and” are separate entries in the source; they are usually repeats but may differ in a detail not shown here. Equal entries are not always repeated. After the bases stand the sugars from the 5' end (letter, count) and the backbone: PS all phosphorothioate, else s phosphorothioate and o phosphodiester by linkage. Methylation of C is not given here. e = 2'-O-(2-methoxyethyl) (MOE); k = constrained ethyl (cEt); d = 2'-deoxy (DNA)

The target in this data set is IRF4. The settings on record: ASO.

As for “GTGTCTAAAGTCCCAT (sugars kkdddddddddekeke, PS)”, the target mRNA inhibition (MM.1R, 1 µM) is 32% and 23%.

For “GTGTCTAAAGTCCCAT (sugars kkdddddddddkdkdk, PS)”, the target mRNA inhibition (MM.1R, 1 µM) was 20% and 5%. Consider “GTGTGCTTGCCAAGCC (sugars kddddddddddkekek, PS)”, for which the target mRNA inhibition (MM.1R, 1 µM) is 40% and 23%.

As to “GTGTGCTTGCCAAGCC (sugars kkddddddddddkeke, PS)”, under “MM.1R, 1 µM”, the target mRNA inhibition is 37% and 47%. The same measure, in the same setting: in the case of “GTGTGCTTGCCAAGCC (sugars kkdddddddddkdkdk, PS)” it was 59%. For GTGTGGCTGATCCGGG (sugars k3 d10 k3, PS), the target mRNA inhibition (SK-MEL-28, 4 µM) came out at 27%.

With GTGTGTGCACTCGCGC (sugars k3 d10 k3, PS), the target mRNA inhibition (MM.1R, 1 µM) amounted to 19%. For the sequence GTGTTTGCCATGGTAT (sugars k3 d10 k3, PS), the target mRNA inhibition reads like this: (MM.1R, 0.0625 µM) -1%; (MM.1R, 0.25 µM) 13%; (MM.1R, 1 µM) 57% and 40%; (MM.1R, 4 µM) 70%. In the case of GTGTTTGGTGGGAATC (sugars k3 d10 k3, PS), for the setting “SK-MEL-28, 4 µM”, the target mRNA inhibition turned out to be 46%. The same measure, in the same setting: the result for GTTAAAGGAGTGCAGG (sugars k3 d10 k3, PS) reads -14%; that for GTTAGCTACAAAGAGC (sugars k3 d10 k3, PS), 41%; that for GTTCAGAAACCCTCAT (sugars k3 d10 k3, PS), 13%.

GTTGAAAGAACCAAGC (sugars k3 d10 k3, PS): for the setting “SK-MEL-28, 4 µM”, the target mRNA inhibition worked out at 11%.

For the sequence GTTGGCACAATTCTCT (sugars k3 d10 k3, PS), the target mRNA inhibition (MM.1R, 1 µM) was 22% and 16%. Same read-out and setting: in the case of “GTTGGCTGGTCTTTGT (sugars kddddddddddkekek, PS)” it was 23%; in that of “GTTGGCTGGTCTTTGT (sugars kkddddddddddkeke, PS)”, 25%; in that of “GTTGGCTGGTCTTTGT (sugars kkdddddddddkdkdk, PS)”, 56%.

In the case of “GTTGTAAATGAGTCGG (sugars kkdddddddddekeke, PS)”, for the setting “MM.1R, 1 µM”, the target mRNA inhibition is 48%. For “GTTGTAAATGAGTCGG (sugars kkdddddddddkdkdk, PS)”, the target mRNA inhibition is, setting by setting: (MM.1R, 0.074 µM) 34%; (MM.1R, 0.222 µM) 45%; (MM.1R, 0.666 µM) 64%; (MM.1R, 1 µM) 58%; (MM.1R, 2 µM) 85%. Take GTTGTCTGGCTAGCAG (sugars k4 d8 k4, PS): the target mRNA inhibition was 6% and 4% (SK-MEL-28, 0.185 µM); 52% (SK-MEL-28, 4 µM); 42% and 44% and 53% (SK-MEL-28, 5 µM); 62% and 65% and 83% (SK-MEL-28, 15 µM). As for GTTTATTTCCTACTCT (sugars k4 d8 k4, PS), under “SK-MEL-28, 4 µM”, the target mRNA inhibition worked out at 44%.

Regarding GTTTGCCATGGTATTT (sugars k3 d10 k3, PS), the target mRNA inhibition (MM.1R, 1 µM) was 41% and 50%. TAAAACCTCATCCCCT (sugars k3 d10 k3, PS): the target mRNA inhibition (SK-MEL-28, 4 µM) was -26%. Regarding TAAAACTGCGCTCTCT (sugars k3 d10 k3, PS), for the setting “MM.1R, 1 µM”, the target mRNA inhibition was -14%.

As for TAAAGAATGAGGGTCA (sugars k3 d10 k3, PS), for the setting “SK-MEL-28, 4 µM”, the target mRNA inhibition worked out at 45%.

For the sequence TAAAGACCTTAACCAA (sugars k3 d10 k3, PS), the target mRNA inhibition (SK-MEL-28, 4 µM) came out at 30%. As for TAACTGTATGGAACCC (sugars k3 d10 k3, PS), the target mRNA inhibition (MM.1R, 1 µM) is 28%. Still for that read-out and setting: the result for TAAGATCCCACGAAGG (sugars k3 d10 k3, PS) reads 9%; that for TAAGGCACTACTTCCA (sugars k3 d10 k3, PS), 10%; that for TAATCTGTATCATGCA (sugars k3 d10 k3, PS), 22%.

Regarding TAATTATGCAGAAGCT (sugars k3 d10 k3, PS), the target mRNA inhibition (SK-MEL-28, 4 µM) was -3%. Regarding TACACCTCTTCACTAC (sugars k3 d10 k3, PS), the target mRNA inhibition (MM.1R, 1 µM) is -18%. On to TACATTGAGGCATACA (sugars k3 d10 k3, PS), for which, where the note is “SK-MEL-28, 4 µM”, the target mRNA inhibition was 41%. Turning to TACCATGCATAGTGAT (sugars k3 d10 k3, PS), under “SK-MEL-28, 4 µM”, the target mRNA inhibition is 44%. Turning to TACTAATTCCATAGAG (sugars k3 d10 k3, PS), the target mRNA inhibition (SK-MEL-28, 4 µM) stood at 26%. As to TACTCACGAGCACCTC (sugars k3 d10 k3, PS), the target mRNA inhibition (SK-MEL-28, 4 µM) was determined as 41%. Consider “TACTGCTTGAGGTTTT (sugars e1 k2 d9 k2 e2, PS)”, for which, where the note is “MM.1R, 1 µM”, the target mRNA inhibition was 6%.

TACTGCTTGAGGTTTT (sugars k3 d10 k3, PS): the target mRNA inhibition (SK-MEL-28, 4 µM) turned out to be 50%. Turning to “TACTGCTTGAGGTTTT (sugars kkddddddddddkeke, PS)”, where the note is “MM.1R, 1 µM”, the target mRNA inhibition is 11%.

With “TACTGTTACCGATGCT (sugars kkdddddddddekeke, PS)”, the target mRNA inhibition (MM.1R, 1 µM) is 22% and 14%.

On to TACTTAGACATTACTA (sugars k3 d10 k3, PS), for which, for the setting “SK-MEL-28, 4 µM”, the target mRNA inhibition was 39%.

With TAGAGGAATGGCGGAT (sugars k3 d10 k3, PS), the target mRNA inhibition (SK-MEL-28, 4 µM) turned out to be 45%.

As to TAGATCTGTGGTAATC (sugars k3 d10 k3, PS), the target mRNA inhibition (MM.1R, 1 µM) is 20% and 6%.

As to TAGATTGTAGGACAGA (sugars k3 d10 k3, PS), the target mRNA inhibition (SK-MEL-28, 4 µM) came out at 28%. Still for that read-out and setting: in the case of TAGCAGGGCACGCTCT (sugars k3 d10 k3, PS) it was 31%. Still for that read-out and setting: the result for TAGGAAGTTTACTAAC (sugars k3 d10 k3, PS) reads 36%; that for TAGGTGCTTGTTGAAT (sugars k3 d10 k3, PS), 50%. With TAGTAAATATCCTGTA (sugars k3 d10 k3, PS), the target mRNA inhibition (SK-MEL-28, 4 µM) was determined as 42%. As to TAGTAAGTTCTAGTCG (sugars k3 d10 k3, PS), the target mRNA inhibition (MM.1R, 1 µM) is -13%. For TAGTTTTATGTTAGCC (sugars k3 d10 k3, PS), the target mRNA inhibition runs as follows: (MM.1R, 0.0625 µM) 4%; (MM.1R, 0.074 µM) -1%; (MM.1R, 0.222 µM) 4%; (MM.1R, 0.25 µM) 18%; (MM.1R, 0.666 µM) 22%; (MM.1R, 1 µM) 45%. Also, the target mRNA inhibition is, setting by setting: (MM.1R, 2 µM) 39%; (MM.1R, 4 µM) 78%; (SK-MEL-28, 4 µM) 75%. Consider TATACATTGAGGCATA (sugars k3 d10 k3, PS), for which the target mRNA inhibition (MM.1R, 1 µM) stood at 7%. For the sequence TATATATGACGACTTA (sugars k3 d10 k3, PS), for the setting “SK-MEL-28, 4 µM”, the target mRNA inhibition is 20%. The same measure, in the same setting: the result for TATCATATGCCCAATA (sugars k3 d10 k3, PS) reads 32%.

Regarding TATCATGCATACCAAA (sugars k3 d10 k3, PS), the target mRNA inhibition by setting is: (MM.1R, 0.074 µM) -4%; (MM.1R, 0.222 µM) -7%; (MM.1R, 0.666 µM) 3%; (MM.1R, 2 µM) 14%; (SK-MEL-28, 4 µM) 58%. With TATCCATGTTGCATGG (sugars k3 d10 k3, PS), the target mRNA inhibition (SK-MEL-28, 4 µM) stood at 61%. Still for that read-out and setting: the result for TATGCCATGGACAAGT (sugars k3 d10 k3, PS) reads 19%; that for TCAAACTATAATTGGC (sugars k3 d10 k3, PS), 74%. As to TCAAAGTCATTGCTCT (sugars k4 d8 k4, PS), the target mRNA inhibition by setting is: (MM.1R, 0.074 µM) -3%; (MM.1R, 0.222 µM) 6%; (MM.1R, 0.666 µM) 6%; (MM.1R, 2 µM) 13%; (SK-MEL-28, 0.185 µM) 4% and -4% and 0%; (SK-MEL-28, 4 µM) 57%.

For the sequence TCAAATCGACTGCCAC (sugars k3 d10 k3, PS), the target mRNA inhibition (SK-MEL-28, 4 µM) came to 54%. For TCAACAGCAGGTTTTG (sugars k3 d10 k3, PS), the target mRNA inhibition (SK-MEL-28, 4 µM) was 41%. Regarding TCAACCAGTTCCTCAA (sugars k3 d10 k3, PS), the target mRNA inhibition (MM.1R, 1 µM) is -23%. On to TCAACCTGGAAGGATG (sugars k3 d10 k3, PS), for which the target mRNA inhibition (SK-MEL-28, 4 µM) worked out at 30%.

Consider TCAACTTGTGACCCAC (sugars k3 d10 k3, PS), for which the target mRNA inhibition (MM.1R, 1 µM) is 14%. TCAATAATCTCCCAGC (sugars k3 d10 k3, PS): the target mRNA inhibition (SK-MEL-28, 4 µM) is 55%. Same read-out and setting: the result for TCACAAAGCGGGTTCA (sugars k3 d10 k3, PS) reads 23%. Same read-out and setting: in the case of TCACAAGCTGGGCCTT (sugars k3 d10 k3, PS) it was 30%. Same read-out and setting: in the case of TCACCTGGCAACCTGC (sugars k4 d8 k4, PS) it was 28%; in that of TCACGAGGTTGCCGAG (sugars k3 d10 k3, PS), 62%. For TCAGACTGTGCTGCTC (sugars k3 d10 k3, PS), the target mRNA inhibition (SK-MEL-28, 4 µM) is 36%.

As to TCAGAGCTAGAACATG (sugars k3 d10 k3, PS), under “SK-MEL-28, 4 µM”, the target mRNA inhibition was determined as 38%. Still for that read-out and setting: the result for TCAGCTCCACTGTTAA (sugars k3 d10 k3, PS) reads 73%.

For the sequence TCAGGGAATCCCTTAT (sugars k3 d10 k3, PS), the target mRNA inhibition (MM.1R, 1 µM) came to 4%. On the same count and under the same terms, in the case of “TCAGTTTGTGAAGCAT (sugars e1 k2 d9 k2 e2, PS)” it was 47%; in that of “TCAGTTTGTGAAGCAT (sugars k2 d9 e3 k2, PS)”, 39%; in that of “TCAGTTTGTGAAGCAT (sugars kkdddddddddkdkdk, PS)”, 25%.

Consider TCATACCCAATAGTCT (sugars k3 d10 k3, PS), for which the target mRNA inhibition (SK-MEL-28, 4 µM) worked out at 52%. As to TCATACCCTGGATCAC (sugars k3 d10 k3, PS), the target mRNA inhibition (SK-MEL-28, 4 µM) came out at 43%. Turning to TCATGATATTAGAGAC (sugars k3 d10 k3, PS), the target mRNA inhibition (SK-MEL-28, 4 µM) came to 35%. As to TCATTTACTGTTACCG (sugars k3 d10 k3, PS), the target mRNA inhibition (MM.1R, 0.0625 µM) turned out to be 6%; the target mRNA inhibition (MM.1R, 0.25 µM) was found to be 18%; the target mRNA inhibition (MM.1R, 1 µM) is 56% and 40%; the target mRNA inhibition (MM.1R, 4 µM) stood at 82%. Regarding TCCAAAGCATAGAGTC (sugars k3 d10 k3, PS), the target mRNA inhibition (SK-MEL-28, 4 µM) came out at 53%. For TCCAAGCAATTATTCC (sugars k3 d10 k3, PS), the target mRNA inhibition (SK-MEL-28, 4 µM) was 12%. On to TCCACGCGCGGAGGAC (sugars k3 d10 k3, PS), for which the target mRNA inhibition (MM.1R, 1 µM) was -43%.
